Data taken from paper PMC3880318, “Green Tea and One of Its Constituents, Epigallocatechine-3-gallate, Are Potent Inhibitors of Human 11β-hydroxysteroid Dehydrogenase Type 1” (PLoS ONE, 2014).
Several values for one entry are separate records, joined by “and”; a condition that tells them apart may be missing. Identical values can stand only once. Entries after “also recorded” stand apart in the source; their conditions may differ. Like-named read-outs stand apart in the source and are kept apart here.

What was measured:
[1] = biological target: T1, human microsomal 11β-HSD1 (Homo sapiens, UniProt P28845); test: Inhibition of cortisone reduction (11β-HSD1 reductase activity) in human liver microsomes, cortisol quantified by HPLC; conditions: for IC50: IC50, inhibition of cortisone reduction
T1 sequence (P28845 whole entry): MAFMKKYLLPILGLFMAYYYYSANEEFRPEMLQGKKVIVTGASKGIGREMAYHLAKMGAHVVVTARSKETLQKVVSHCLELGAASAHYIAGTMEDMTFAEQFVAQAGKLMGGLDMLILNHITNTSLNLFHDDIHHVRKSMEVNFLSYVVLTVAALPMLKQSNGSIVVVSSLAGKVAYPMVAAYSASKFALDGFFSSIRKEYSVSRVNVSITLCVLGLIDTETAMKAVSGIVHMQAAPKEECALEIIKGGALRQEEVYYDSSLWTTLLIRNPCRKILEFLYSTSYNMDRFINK
Method: (§1) In terms of 11β-HSD1 reductase activity, inhibition analysis was performed as follows: 50 µl of tea extract were added to a mixture containing 400 µM cortisone, 0.8 mM NADPH solution in 100 mM phosphate buffer pH 7.4. […] The total assay volume was 250 µl.
(§2) The reaction was stopped by adding 250 µl ice-cold ethylacetate and vortexing, followed by a 30 sec centrifugation at 13,000 RPM in a microcentrifuge. The organic phase was separated and the aqueous phase extracted two more times with 250 µl ethylacetate. The ethylacetate phases were combined and the solvent was removed in a SpeedVac (ThermoSavant). The resulting residue was dissolved in 150 µl methanol-water (58∶42, v/v) and used for metabolite quantification by HPLC.
(§3) Product yield was quantified by peak integration of the cortisone and cortisol peaks, respectively.
(§4) The data obtained were plotted as substrate-velocity curves and analyzed by nonlinear-regression.

purified 11β-HSD1 [2] = biological target: T2, purified 11β-HSD1 (Homo sapiens, UniProt P28845); test: Inhibition of cortisone reduction by purified human 11β-HSD1; assay type: biochemical
T2 construct: from tissue; host or cells: human liver
T2 sequence (P28845 whole entry): as above
Method: The total assay volume was 250 µl.

[3] = biological target: T3, 11β-HSD1 in human liver microsomes (Homo sapiens, UniProt P28845); test: Inhibition of cortisol oxidation (11β-HSD1 dehydrogenase activity) in human liver microsomes, HPLC; assay type: biochemical; conditions: pH 9.0, NADP
T3 construct: The reaction was started by adding 5 µl of human liver microsomes (218 µg protein); from tissue; host or cells: human liver (microsomal fraction)
T3 sequence (P28845 whole entry): as above
Method: Here, the incubation time was 60 min at 37°C in a 100 mM phosphate buffer pH 9.0.

purified 11β-HSD1 [4] = biological target: T2, purified 11β-HSD1; test: Western Blot analysis for EGCG-induced 11β-HSD1 aggregate formation; conditions: preincubation 3 h at 37°C, up to 100 µM
Method: To exclude EGCG-induced 11β-HSD1 aggregate formation, purified 11β-HSD1 (2.14 µg) was preincubated with 25–100 µM EGCG (3 h at 37°C) and then prepared for sodium dodecyl sulfate polyacrylamide gel electrophoresis (SDS-PAGE) according to the manufacturer's protocol. As a control, the same volume of untreated purified protein was loaded onto the parallel lane.
The resolved proteins were transferred to nitrocellulose membranes. After blocking the membrane for 1 h at RT with 5% non-fat dry milkpowder in PBS-buffer, the blocking solution was replaced by the primary antibody at a 1∶2,000 dilution and the membrane was incubated at 4°C for about 16 h. Primary and secondary antibodies were diluted in PBS containing 2.5% non-fat dry milkpowder. The membrane was washed three times and then the corresponding secondary antibody was added at a dilution of 1∶10,000. After a 1.5 h incubation at RT the membrane was washed three times and the specific Western blot signals of 11β-HSD1 were detected by the ECL Western Blotting System according to the manufacturer's instructions.

[5] = biological target: T1, human microsomal 11β-HSD1; test: biochemical
Method: as §1, §2, §3, §4

[6] = read-out: inhibition of cortisone reduction

**Q.** `Oc1cc(O)c2c(c1)O[C@H](c1cc(O)c(O)c(O)c1)[C@H](O)C2` [EGC, (−)-epigallocatechin] was tested. Which inhibition at 200 µM [1, 6] did it give?
**A.** ~25%

**Q.** For `Oc1cc(O)c2c(c1)O[C@@H](c1cc(O)c(O)c(O)c1)[C@H](O)C2` [GC, (−)-gallocatechin], which inhibition at 100 µM [1, 6] is on record?
**A.** ~53%

**Q.** For `OO` [hydrogen peroxide, reference compound], which “influence on cortisol production” value (purified 11β-HSD1 [2]; up to 300 µM, purified human 11β-HSD1) is on record?
**A.** No 11β-HSD1 inhibition

**Q.** What about the “influence on cortisol production” value ([1]; up to 300 µM, human liver microsomes) of the same compound?
**A.** No 11β-HSD1 inhibition

**Q.** What does the source list for `O=C(O[C@@H]1Cc2c(O)cc(O)cc2O[C@@H]1c1cc(O)c(O)c(O)c1)c1cc(O)c(O)c(O)c1` [EGCG, (−)-epigallocatechin-3-gallate]?
**A.** IC50 [3]: 131 µM; type of inhibition (purified 11β-HSD1 [2]; purified 11β-HSD1, with respect to cortisone): mixed inhibition; also recorded: mixed mode; Ki (purified 11β-HSD1 [2]; purified human 11β-HSD1, read-out: Ki (estimated by Dixon-plot) on cortisone reduction): 20.9 µM; Ki (purified 11β-HSD1 [2]; purified human 11β-HSD1, read-out: Ki (non-linear regression) on cortisone reduction): 18.7 µM; protein aggregate formation (purified 11β-HSD1 [4]): did not induce protein aggregate formation; Ki [5]: 22.7 µM and 17.8 µM; IC50 ([1]; human liver microsomes, freshly prepared solution): 58 µM; IC50 ([1]; stored solution, human liver microsomes, aqueous solution stored at −20°C for one week): 26.9 µM; type of inhibition ([1]; human liver microsomes, with respect to cortisone): mixed inhibition; inhibition at 100 µM [1, 6]: ~75%
